Measured values taken from patent US9981909B2 (Janssen Pharmaceutica NV, priority 2008, dated 2018).
pKi: −log10 of the molar value. Structures can show the parent of a compound that is named as a salt.

Target: rat 5-HT7 receptor (Rattus norvegicus (Rat), UniProt P32305)
Assay: r5-HT7 binding assay, competitive radioligand binding with [3H]5-CT
Conditions: rat 5-HT7 receptor, HEK-293 membranes
Method: Receptor binding was performed using membrane fractions prepared from the HEK-293 cell line recombinantly expressing rat 5-HT7 receptors (NCBI accession NM_022938). Compound affinity for the rat 5-HT7 receptor subtype was evaluated by competitive radioligand binding assays using 5-carboxamido[^3H]tryptamine ([^3H]5-CT) (Amersham Biosciences, cat. 90000403) detection. HitHunter™ cAMP assays are in-vitro based competitive immunoassays. The assay was performed on the HEK-293 cell line stably transfected with r5-HT7 receptor. Cells were pre-incubated with test compounds for 10 minutes. For antagonist testing, the cells were then challenged with 100 nM 5-CT for 20 minutes. Cells were then lysed and cAMP measured according to manufacturers protocol (Amersham, cat. NET791250UC) or [^3H]mesulergine (Amersham, cat. TRK1041). The assay was performed on membranes prepared from HEK-293 cells stably transfected with h5-HT6. Following centrifugation, membranes were resuspended and incubated for 60 min at room temperature with 1.7 nM [^3H]LSD in the presence of increasing concentration of test compounds. Nonspecific binding was defined in the presence of 10 μM clozapine (Tocris, cat. TRK1068). Homogenized HEK-293 membranes expressing the human SERT were incubated in 50 mM Tris-HCl (pH 7.5), 120 mM NaCl, 5 mM KCl with [^3H]-citalopram (3 nM) with or without test compounds. Nonspecific binding was determined in the presence of 10 μM fluoxetine. Radioactivity readouts and Ki values were performed as previously described for r5-HT7. […] Compounds were assayed in their free form or as salts, as indicated in the Examples section above.

Sequence of rat 5-HT7 receptor (P32305 1-435): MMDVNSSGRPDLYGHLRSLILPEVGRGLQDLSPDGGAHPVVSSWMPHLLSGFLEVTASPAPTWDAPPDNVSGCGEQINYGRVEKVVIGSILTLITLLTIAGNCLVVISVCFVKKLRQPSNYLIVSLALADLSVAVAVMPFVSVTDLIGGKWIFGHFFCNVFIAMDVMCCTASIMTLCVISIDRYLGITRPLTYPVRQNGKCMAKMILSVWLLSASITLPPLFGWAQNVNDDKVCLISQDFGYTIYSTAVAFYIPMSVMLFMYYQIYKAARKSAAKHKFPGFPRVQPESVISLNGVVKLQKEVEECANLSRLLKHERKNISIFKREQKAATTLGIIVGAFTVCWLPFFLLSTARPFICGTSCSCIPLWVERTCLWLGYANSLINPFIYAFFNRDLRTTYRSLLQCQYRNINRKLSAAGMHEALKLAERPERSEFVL

| Structure (SMILES) | pKi |
| --- | --- |
| FC(F)(F)c1ccc(COc2ccc(Cl)cc2OC2CCCNC2)o1 (racemic) [Example 69, (±)-3-[5-Chloro-2-(5-trifluoromethyl-furan-2-ylmethoxy)-phenoxy]-piperidine] | 7.03 |
| Clc1ccc(OCc2ccccc2)c(OC2CCCNC2)c1 (racemic) [Example 70, (±)-3-(2-Benzyloxy-5-chloro-phenoxy)-piperidine] | 6.76 |
| FC(F)(F)c1cccc(COc2ccc(Cl)cc2OC2CCCNC2)c1 (racemic) [Example 71, (±)-3-[5-Chloro-2-(3-trifluoromethyl-benzyloxy)-phenoxy]-piperidine] | 6.84 |
| CN1CCC(Oc2cc(Br)ccc2OCc2cccc(Cl)c2)C1 (racemic) [Example 95, (±)-3-[5-Bromo-2-(3-chloro-benzyloxy)-phenoxy]-1-methyl-pyrrolidine] | 8.05 |
| COc1cccc(COc2ccc(Br)cc2OC2CCN(C)C2)c1 (racemic) [Example 96, (±)-3-[5-Bromo-2-(3-methoxy-benzyloxy)-phenoxy]-1-methyl-pyrrolidine] | 7.89 |
| CN1CCC(Oc2cc(Br)ccc2OCc2cccc(F)c2)C1 (racemic) [Example 97, (±)-3-[5-Bromo-2-(3-fluoro-benzyloxy)-phenoxy]-1-methyl-pyrrolidine] | 7.47 |
| CN1CCC(Oc2cc(Br)ccc2OCc2ccccc2)C1 (racemic) [Example 98, (±)-3-(2-Benzyloxy-5-bromo-phenoxy)-1-methyl-pyrrolidine] | 7.64 |
| CN1CCC(Oc2cc(Br)ccc2OCc2cccc(OS(C)(=O)=O)c2)C1 (racemic) [Example 99, (±)-Methanesulfonic acid 3-[4-bromo-2-(1-methyl-pyrrolidin-3-yloxy)-phenoxymethyl]-phenyl ester] | 8.30 |
| CN1CCC(Oc2ccccc2OCc2cccc(OS(C)(=O)=O)c2)C1 (racemic) [Example 100, (±)-Methanesulfonic acid 3-[2-(1-methyl-pyrrolidin-3-yloxy)-phenoxymethyl]-phenyl ester] | 6.82 |
| CC(Oc1ccc(Cl)cc1OC1CN(C(C)C)C1)c1cccc(C(F)(F)F)c1 (racemic) [Example 106, (±)-3-[5-Chloro-2-[1-(3-trifluoromethyl-phenyl)-ethoxy]-phenoxy]-1-isopropyl-azetidine] | 7.12 |
| CC(Oc1ccc(Cl)cc1OC1CN(C2CCC2)C1)c1cccc(C(F)(F)F)c1 (racemic) [Example 107, (±)-3-[5-Chloro-2-[1-(3-trifluoromethyl-phenyl)-ethoxy]-phenoxy]-1-cyclobutyl-azetidine] | 7.05 |
| CC(Oc1ccc(Cl)cc1OC1CNC1)c1ccccc1Cl (racemic) [Example 116, (±)-3-[5-Chloro-2-[1-(2-chloro-phenyl)-ethoxy]-phenoxy]-azetidine] | 7.17 |
| CC(Oc1ccc(Cl)cc1OC1CNC1)c1ccc(C(F)(F)F)c(F)c1 (racemic) [Example 118, (±)-3-[5-Chloro-2-[1-(3-fluoro-4-trifluoromethyl-phenyl)-ethoxy]-phenoxy]-azetidine] | 7.05 |
| CC(Oc1ccc(Cl)cc1OC1CNC1)c1cc(F)cc(C(F)(F)F)c1 (racemic) [Example 119, (±)-3-[5-Chloro-2-[1-(3-fluoro-5-trifluoromethyl-phenyl)-ethoxy]-phenoxy]-azetidine] | 6.54 |
| CC(Oc1ccc(Cl)cc1OC1CNC1)c1cccc(SC(F)(F)F)c1 (racemic) [Example 120, (±)-3-[5-Chloro-2-[1-(3-trifluoromethylsulfanyl-phenyl)-ethoxy]-phenoxy]-azetidine] | 7.40 |
| CC(Oc1ccc(Cl)cc1OC1CNC1)c1ccccc1C(F)(F)F (racemic) [Example 122, (±)-3-[5-Chloro-2-[1-(2-trifluoromethyl-phenyl)-ethoxy]-phenoxy]-azetidine] | 6.68 |
| CC(Oc1ccc(Cl)cc1OC1CNC1)c1cccc(C#N)c1 (racemic) [Example 125, (±)-3-[1-[2-(Azetidin-3-yloxy)-4-chloro-phenoxy]-ethyl]-benzonitrile] | 6.98 |
| CC(Oc1ccc(Cl)cc1OC1CNC1)c1ccc(Cl)c(Cl)c1 (racemic) [Example 126, (±)-3-[5-Chloro-2-[1-(3,4-dichloro-phenyl)-ethoxy]-phenoxy]-azetidine] | 7.42 |
| CC(Oc1ccc(Cl)cc1OC1CNC1)c1cccc(OC(F)(F)F)c1 (racemic) [Example 127, (±)-3-[5-Chloro-2-[1-(3-trifluoromethoxy-phenyl)-ethoxy]-phenoxy]azetidine] | 7.20 |
| CC(Oc1ccc(Cl)cc1OC1CNC1)c1ccc(F)c(F)c1 (racemic) [Example 128, (±)-3-[5-Chloro-2-[1-(3,4-difluoro-phenyl)-ethoxy]-phenoxy]-azetidine trifluoroacetate] | 6.90 |

| Structure (SMILES) | pKi |
| --- | --- |
| CC(Oc1ccc(Cl)cc1OC1CNC1)c1cc(Cl)ccc1Cl (racemic) [Example 129, (±)-3-[5-Chloro-2-[1-(2,5-dichloro-phenyl)-ethoxy]-phenoxy]-azetidine trifluoroacetate] | 6.04 |
| CC(Oc1ccc(Cl)cc1OC1CNC1)c1cc(F)ccc1F (racemic) [Example 130, (±)-3-[5-Chloro-2-[1-(2,5-difluoro-phenyl)-ethoxy]-phenoxy]-azetidine trifluoroacetate] | 6.43 |
| CC(Oc1ccc(Cl)cc1OC1CCNCC1)c1cccc(OC(F)(F)F)c1 (racemic) [Example 137, (±)-4-[5-Chloro-2-[1-(3-trifluoromethoxy-phenyl)-ethoxy]-phenoxy]-piperidine] | 6.33 |
| CC(Oc1ccc(Cl)cc1OC1CCNCC1)c1ccccc1F (racemic) [Example 138, (±)-4-[5-Chloro-2-[1-(2-fluoro-phenyl)-ethoxy]-phenoxy]-piperidine] | 7.38 |
| CCC(Oc1ccc(Cl)cc1OC1CNC1)c1cccc(C(F)(F)F)c1 (racemic) [Example 140, (±)-3-[5-Chloro-2-[1-(3-trifluoromethyl-phenyl)-propoxy]-phenoxy]-azetidine] | 6.64 |
| CCC(Oc1ccc(Cl)cc1OC1CCNCC1)c1cccc(C(F)(F)F)c1 (racemic) [Example 141, (±)-4-[5-Chloro-2-[1-(3-trifluoromethyl-phenyl)-propoxy]-phenoxy]-piperidine] | 6.35 |
| FCC(Oc1ccc(Cl)cc1OC1CCNCC1)c1ccccc1 (racemic) [Example 144, (±)-4-[5-Chloro-2-(2-fluoro-1-phenyl-ethoxy)-phenoxy]-piperidine] | 6.52 |
| FC(F)(F)Oc1ccc(COc2ccc(Br)cc2OC2CNC2)cc1Cl [Example 11, 3-[5-Bromo-2-(3-chloro-4-trifluoromethoxy-benzyloxy)-phenoxy]-azetidine] | 7.28 |
| CN1CC(Oc2cc(Br)ccc2OCc2ccccc2Cl)C1 [Example 16, 3-[5-Bromo-2-(2-chloro-benzyloxy)-phenoxy]-1-methyl-azetidine] | 7.00 |
| CC(C)N1CC(Oc2cc(Br)ccc2OCc2cccc(F)c2)C1 [Example 20, 3-[5-Bromo-2-(3-fluoro-benzyloxy)-phenoxy]-1-isopropyl-azetidine] | 8.10 |
| Fc1cccc(COc2ccc(Br)cc2OC2CN(C3CCC3)C2)c1 [Example 21, 3-[5-Bromo-2-(3-fluoro-benzyloxy)-phenoxy]-1-cyclobutyl-azetidine] | 7.70 |
| Clc1cccc(COc2cc(Br)ccc2OC2CN(C3CCC3)C2)c1 [Example 23, 3-[4-Bromo-2-(3-chloro-benzyloxy)-phenoxy]-1-cyclobutyl-azetidine] | 6.92 |
| CC(C)N1CC(Oc2ccc(Br)cc2OCc2cccc(Cl)c2)C1 [Example 24, 3-[4-Bromo-2-(3-chloro-benzyloxy)-phenoxy]-1-isopropyl-azetidine] | 6.72 |
| Cc1cc(COc2ccc(Cl)cc2OC2CNC2)no1 [Example 30, 3-[2-(Azetidin-3-yloxy)-4-chloro-phenoxymethyl]-5-methyl-isoxazole] | 6.98 |
| FC(F)(F)Oc1ccc(COc2ccc(Cl)cc2OC2CNC2)cc1Cl [Example 41, 3-[5-Chloro-2-(3-chloro-4-trifluoromethoxy-benzyloxy)-phenoxy]-azetidine] | 6.89 |
| N#Cc1ccc(COc2ccc(Cl)cc2OC2CNC2)cc1 [Example 44, 4-[2-(Azetidin-3-yloxy)-4-chloro-phenoxymethyl]-benzonitrile] | 7.06 |
| FC(F)(F)Sc1ccc(COc2ccc(Cl)cc2OC2CNC2)cc1 [Example 46, 3-[5-Chloro-2-(4-trifluoromethylsulfanyl-benzyloxy)-phenoxy]-azetidine] | 6.99 |
| Fc1cc(C(F)(F)F)ccc1COc1ccc(Cl)cc1OC1CNC1 [Example 48, 3-[5-Chloro-2-(2-fluoro-4-trifluoromethyl-benzyloxy)-phenoxy]-azetidine] | 7.06 |
| CCOC(=O)c1ccc(COc2ccc(Cl)cc2OC2CNC2)o1 [Example 55, 5-[2-(Azetidin-3-yloxy)-4-chloro-phenoxymethyl]-furan-2-carboxylic acid ethyl ester] | 6.77 |
| CS(=O)(=O)c1cc(Cl)ccc1COc1ccc(Cl)cc1OC1CNC1 [Example 56, 3-[5-Chloro-2-(4-chloro-2-methanesulfonyl-benzyloxy)-phenoxy]-azetidine] | 5.05 |
